# In article PMC8591808 (Molecular Brain, 2021):
# Target: T1, Cav3.2 T-type calcium channel (Homo sapiens, UniProt O95180)
# T1 construct: gene CACNA1H
# Experiment: whole-cell patch clamp, tsA-201 cells transiently expressing Cav3.[…]; partial block (plateau about […])
# Type: cell-based
# T1 sequence (O95180 whole entry): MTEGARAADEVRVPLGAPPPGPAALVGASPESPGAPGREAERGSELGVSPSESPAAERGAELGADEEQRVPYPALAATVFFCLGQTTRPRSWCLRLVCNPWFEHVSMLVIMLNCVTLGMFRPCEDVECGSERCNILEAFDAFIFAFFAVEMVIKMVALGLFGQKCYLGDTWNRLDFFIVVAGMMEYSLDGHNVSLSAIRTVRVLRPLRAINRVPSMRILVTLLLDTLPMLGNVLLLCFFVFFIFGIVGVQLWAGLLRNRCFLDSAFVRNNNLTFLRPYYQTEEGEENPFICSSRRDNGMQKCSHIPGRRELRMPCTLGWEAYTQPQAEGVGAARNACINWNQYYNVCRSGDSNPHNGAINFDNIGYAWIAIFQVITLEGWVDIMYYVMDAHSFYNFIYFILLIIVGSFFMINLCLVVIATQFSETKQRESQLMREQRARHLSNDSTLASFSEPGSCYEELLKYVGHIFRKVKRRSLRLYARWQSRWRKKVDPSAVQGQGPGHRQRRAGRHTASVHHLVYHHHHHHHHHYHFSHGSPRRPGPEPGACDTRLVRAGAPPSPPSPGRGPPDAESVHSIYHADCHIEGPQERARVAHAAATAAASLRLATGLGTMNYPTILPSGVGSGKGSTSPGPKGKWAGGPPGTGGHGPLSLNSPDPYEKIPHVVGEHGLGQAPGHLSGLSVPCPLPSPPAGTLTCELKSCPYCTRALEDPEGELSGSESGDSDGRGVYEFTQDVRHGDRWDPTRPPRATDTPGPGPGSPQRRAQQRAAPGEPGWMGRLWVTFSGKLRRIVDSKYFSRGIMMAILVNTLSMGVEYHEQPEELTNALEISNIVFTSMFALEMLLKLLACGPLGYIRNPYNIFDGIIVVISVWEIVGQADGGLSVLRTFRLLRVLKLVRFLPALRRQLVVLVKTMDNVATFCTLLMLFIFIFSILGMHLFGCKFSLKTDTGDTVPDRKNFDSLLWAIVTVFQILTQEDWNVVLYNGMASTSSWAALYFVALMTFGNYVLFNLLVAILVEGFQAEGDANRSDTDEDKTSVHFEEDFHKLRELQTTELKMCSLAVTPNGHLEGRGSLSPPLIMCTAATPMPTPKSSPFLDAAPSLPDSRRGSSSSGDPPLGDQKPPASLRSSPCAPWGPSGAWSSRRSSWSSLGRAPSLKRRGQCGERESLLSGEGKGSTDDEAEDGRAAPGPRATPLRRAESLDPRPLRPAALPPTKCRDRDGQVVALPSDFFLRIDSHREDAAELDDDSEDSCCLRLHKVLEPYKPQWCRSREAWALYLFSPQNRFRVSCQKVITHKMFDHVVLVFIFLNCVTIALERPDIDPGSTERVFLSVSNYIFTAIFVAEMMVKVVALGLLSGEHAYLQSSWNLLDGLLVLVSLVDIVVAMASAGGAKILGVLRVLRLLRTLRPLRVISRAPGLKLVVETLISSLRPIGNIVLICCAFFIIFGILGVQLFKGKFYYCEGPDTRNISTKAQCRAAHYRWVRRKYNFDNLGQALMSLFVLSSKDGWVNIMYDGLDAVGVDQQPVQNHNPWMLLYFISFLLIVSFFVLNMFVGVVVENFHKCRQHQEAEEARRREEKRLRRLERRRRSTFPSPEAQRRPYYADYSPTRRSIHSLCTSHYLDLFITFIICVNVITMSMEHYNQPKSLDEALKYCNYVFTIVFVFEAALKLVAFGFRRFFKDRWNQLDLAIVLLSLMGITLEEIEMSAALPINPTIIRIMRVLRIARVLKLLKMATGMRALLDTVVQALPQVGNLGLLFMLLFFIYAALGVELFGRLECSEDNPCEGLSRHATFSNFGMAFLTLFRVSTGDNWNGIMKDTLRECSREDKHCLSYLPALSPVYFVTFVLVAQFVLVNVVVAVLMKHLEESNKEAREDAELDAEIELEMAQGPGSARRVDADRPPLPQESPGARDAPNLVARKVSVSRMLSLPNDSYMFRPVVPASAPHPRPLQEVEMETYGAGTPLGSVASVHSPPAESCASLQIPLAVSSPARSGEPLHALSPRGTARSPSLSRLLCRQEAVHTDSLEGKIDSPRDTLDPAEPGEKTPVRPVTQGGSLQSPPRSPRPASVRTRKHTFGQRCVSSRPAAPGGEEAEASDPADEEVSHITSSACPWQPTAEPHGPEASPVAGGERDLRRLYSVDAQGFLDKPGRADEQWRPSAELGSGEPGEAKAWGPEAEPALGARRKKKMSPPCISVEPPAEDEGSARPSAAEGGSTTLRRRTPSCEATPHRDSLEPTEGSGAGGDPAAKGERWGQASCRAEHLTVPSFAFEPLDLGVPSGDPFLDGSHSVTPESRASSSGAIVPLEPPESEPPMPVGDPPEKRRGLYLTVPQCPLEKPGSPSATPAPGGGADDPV
row,Structure (SMILES),IC50
1,CC(C)=CCC[C@](C)(O)[C@@H]1CC=C(C)CC1 [alpha-bisabolol],4.5 ± 1.1 µM
2,C=C1C2CCC(C2)C1(C)C (centres unmarked) [camphene],7.7 ± 1.8 µM
